Results on three compounds are retold here after ChEMBL document CHEMBL1212706, “A potent mechanism-inspired O-GlcNAcase inhibitor that blocks phosphorylation of tau in vivo” (Nat Chem Biol, 2008).

The species entered for one assay is Homo sapiens. The assay can be described thus: Selectivity for human O-GlcNAcase over human lysosomal beta-hexosaminidase.
For a further assay, the target named is T1, Protein O-GlcNAcase (Homo sapiens, UniProt O60502).
T1 sequence (O60502 whole entry): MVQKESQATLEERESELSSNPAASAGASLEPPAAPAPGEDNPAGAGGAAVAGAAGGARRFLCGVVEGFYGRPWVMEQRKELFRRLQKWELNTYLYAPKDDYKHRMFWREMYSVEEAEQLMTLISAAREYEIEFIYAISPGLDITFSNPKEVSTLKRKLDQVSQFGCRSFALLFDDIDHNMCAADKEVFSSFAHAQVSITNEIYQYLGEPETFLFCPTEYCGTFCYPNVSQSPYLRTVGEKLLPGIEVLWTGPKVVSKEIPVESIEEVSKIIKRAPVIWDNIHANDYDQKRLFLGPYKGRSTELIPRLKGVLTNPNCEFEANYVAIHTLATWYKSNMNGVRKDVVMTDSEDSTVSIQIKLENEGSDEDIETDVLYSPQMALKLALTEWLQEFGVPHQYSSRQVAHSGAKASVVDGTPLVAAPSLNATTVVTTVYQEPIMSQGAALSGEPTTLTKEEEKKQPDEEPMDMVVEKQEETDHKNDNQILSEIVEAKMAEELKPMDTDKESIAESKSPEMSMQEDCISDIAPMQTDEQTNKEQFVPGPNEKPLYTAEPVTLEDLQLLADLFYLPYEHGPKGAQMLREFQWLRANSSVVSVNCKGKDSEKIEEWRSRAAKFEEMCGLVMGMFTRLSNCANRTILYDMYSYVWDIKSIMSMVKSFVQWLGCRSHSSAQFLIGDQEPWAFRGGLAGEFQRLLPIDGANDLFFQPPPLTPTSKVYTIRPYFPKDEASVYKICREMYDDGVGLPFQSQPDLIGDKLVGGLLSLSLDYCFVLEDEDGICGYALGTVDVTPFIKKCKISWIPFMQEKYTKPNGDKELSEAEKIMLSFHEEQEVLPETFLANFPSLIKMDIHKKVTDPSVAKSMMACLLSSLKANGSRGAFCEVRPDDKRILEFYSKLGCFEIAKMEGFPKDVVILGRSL
As to the kind of experiment: Inhibition of human O-GlcNAcase.

Assay [1] deals with Rattus norvegicus. The assay can be described thus: Decrease in pSer396 immunoreactivity in Sprague-Dawley rat brain epitops of CA1 region at 200 mg/kg, po by […]. The format is functional, organism-based. The arrangement: dose 200 mg/kg.
The test system of assay [2] is Rattus norvegicus. As to the kind of experiment: Increase in O-GlcNAc immunoreactivity in Sprague-Dawley rat brain perikaryon at 200 mg/kg, po by […]. The format is functional, organism-based. The arrangement: dose 200 mg/kg.
Assay [3] has as its system Rattus norvegicus. The assay can be described thus: Increase in O-GlcNAc immunoreactivity in Sprague-Dawley rat brain nucleus at 200 mg/kg, po by […]. The assay is classed as functional, organism-based. The arrangement: dose 200 mg/kg.
The test system of assay [4] is PC-12. As to the kind of experiment: Reduction in tau protein phosphorylation at Ser396 position in NGF-differentiated rat PC12 cells after 4 hrs by Western blot analysis relative to control. The format is functional, cell-based. For orientation: In western blotting, separated proteins are transferred to a membrane and probed.
Assay [5] relates to Rattus norvegicus. The assay can be described thus: Decrease in pThr231 immunoreactivity in Sprague-Dawley rat brain pyramidal cell layer of CA1 region at 200 mg/kg, po by […]. The arrangement: dose 200 mg/kg. The format is functional, organism-based.
In assay [6] the test system is Rattus norvegicus. The assay can be described thus: Increase in O-GlcNAc level in Sprague-Dawley rat brain pyramidal cell layer of CA1 region at 200 mg/kg, po by […]. The format is functional, organism-based. The arrangement: dose 200 mg/kg.
Assay [7] addresses T2, Alpha-galactosidase (Thermotoga maritima) (UniProt G4FEF4).
T2 sequence (whole entry): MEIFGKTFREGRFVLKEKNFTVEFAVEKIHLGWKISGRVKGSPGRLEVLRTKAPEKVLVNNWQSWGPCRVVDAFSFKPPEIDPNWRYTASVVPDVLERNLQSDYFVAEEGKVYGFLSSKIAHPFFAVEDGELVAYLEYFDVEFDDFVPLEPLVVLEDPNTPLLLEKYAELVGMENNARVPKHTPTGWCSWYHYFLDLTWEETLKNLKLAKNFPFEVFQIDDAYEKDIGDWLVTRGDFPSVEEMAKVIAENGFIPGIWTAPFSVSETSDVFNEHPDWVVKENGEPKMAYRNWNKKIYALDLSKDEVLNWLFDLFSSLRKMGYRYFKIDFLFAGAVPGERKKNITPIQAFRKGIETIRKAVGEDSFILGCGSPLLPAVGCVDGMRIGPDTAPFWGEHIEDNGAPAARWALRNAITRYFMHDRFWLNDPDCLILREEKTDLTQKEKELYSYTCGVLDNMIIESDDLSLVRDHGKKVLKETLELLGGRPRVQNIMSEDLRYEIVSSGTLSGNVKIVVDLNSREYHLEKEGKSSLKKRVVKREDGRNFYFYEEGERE
As to the kind of experiment: Inhibition of Thermotoga maritima alpha-galactosidase.

For assay [8], the system named is PC-12. As to the kind of experiment: Induction of O-GlcNAc level in NGF-differentiated rat PC12 cells after 24 hrs by Western blot analysis. The assay is classed as functional, cell-based.
Assay [9] has as its system Rattus norvegicus. The assay can be described thus: Reduction in tau protein phosphorylation at Ser396 in Sprague-Dawley rat brain CA1 region at 200 mg/kg, po by […]. The format is functional, organism-based. The arrangement: dose 200 mg/kg.
For assay [10], the system named is PC-12. The assay can be described thus: […] in pSer396 immunoreactivity in NGF-differentiated rat PC12 cells after 4 hrs by Western blot analysis. As to conditions: TDE = time-dependent effect. The assay is classed as functional, cell-based.
In assay [11] the test system is PC-12. As to the kind of experiment: Induction of O-GlcNAc level in NGF-differentiated rat PC12 cells at >25 uM by Western blot analysis. The format is functional, cell-based. As to conditions: TDE = time-dependent effect.
For assay [12], the target named is Beta-galactosidase (Kluyveromyces lactis) (UniProt P00723). The assay can be described thus: Inhibition of Kluyveromyces lactis glycoside hydrolase beta-galactosidase.
Chain of Beta-galactosidase (Kluyveromyces lactis) (P00723 whole entry): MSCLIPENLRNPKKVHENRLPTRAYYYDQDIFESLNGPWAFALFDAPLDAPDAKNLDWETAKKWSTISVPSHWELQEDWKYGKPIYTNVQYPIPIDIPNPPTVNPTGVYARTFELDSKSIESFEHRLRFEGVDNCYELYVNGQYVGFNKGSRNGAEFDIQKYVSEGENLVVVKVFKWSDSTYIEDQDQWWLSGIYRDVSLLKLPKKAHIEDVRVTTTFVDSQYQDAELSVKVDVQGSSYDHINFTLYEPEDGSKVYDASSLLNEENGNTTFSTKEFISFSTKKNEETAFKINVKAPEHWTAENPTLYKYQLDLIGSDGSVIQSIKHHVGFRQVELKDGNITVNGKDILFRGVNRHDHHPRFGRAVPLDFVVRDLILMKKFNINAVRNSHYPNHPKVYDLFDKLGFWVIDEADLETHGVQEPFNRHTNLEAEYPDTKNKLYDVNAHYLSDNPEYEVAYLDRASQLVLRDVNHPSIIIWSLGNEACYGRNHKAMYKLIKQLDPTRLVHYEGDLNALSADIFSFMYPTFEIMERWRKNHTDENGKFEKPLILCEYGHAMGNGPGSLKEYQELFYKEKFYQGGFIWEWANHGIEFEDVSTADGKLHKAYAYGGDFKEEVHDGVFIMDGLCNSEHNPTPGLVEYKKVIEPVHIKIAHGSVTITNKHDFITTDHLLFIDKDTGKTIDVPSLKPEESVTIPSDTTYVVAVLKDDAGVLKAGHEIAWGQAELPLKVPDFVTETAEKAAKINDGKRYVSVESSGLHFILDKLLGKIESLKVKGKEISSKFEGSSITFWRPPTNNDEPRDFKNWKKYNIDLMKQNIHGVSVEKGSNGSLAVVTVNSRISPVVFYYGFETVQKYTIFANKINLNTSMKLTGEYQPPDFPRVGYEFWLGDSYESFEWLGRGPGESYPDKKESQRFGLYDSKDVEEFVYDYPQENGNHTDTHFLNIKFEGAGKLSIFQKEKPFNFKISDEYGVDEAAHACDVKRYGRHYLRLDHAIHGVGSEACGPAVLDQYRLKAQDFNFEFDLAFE
For a further assay, the system named is Saccharomyces cerevisiae. As to the kind of experiment: Inhibition of Saccharomyces cerevisiae alpha-glucosidase.
The nature of assay [13]: Inhibition of beta-hexosaminidase.
Assay [14] deals with Rattus norvegicus. As to the kind of experiment: Reduction in tau protein phosphorylation at Thr231 in Sprague-Dawley rat brain CA1 region at 200 mg/kg, po by […]. The format is functional, organism-based. The arrangement: dose 200 mg/kg.
Assay [15] in a line: Inhibition of human lysosomal beta-hexosaminidase.
The target in assay [16] is T3, Beta-hexosaminidase (Vibrio cholerae serotype O1 (strain ATCC 39315 / El Tor Inaba N16961)) (UniProt Q9KU37).
T3 sequence (whole entry): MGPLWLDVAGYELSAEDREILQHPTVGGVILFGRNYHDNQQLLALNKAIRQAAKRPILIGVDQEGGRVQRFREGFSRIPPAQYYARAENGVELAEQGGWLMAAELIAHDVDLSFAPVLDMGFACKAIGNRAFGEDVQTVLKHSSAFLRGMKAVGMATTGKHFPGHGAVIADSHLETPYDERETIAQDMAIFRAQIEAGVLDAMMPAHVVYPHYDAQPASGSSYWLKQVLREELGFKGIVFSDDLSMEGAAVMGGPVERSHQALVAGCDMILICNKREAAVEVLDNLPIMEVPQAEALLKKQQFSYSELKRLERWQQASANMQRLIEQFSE
The assay can be described thus: Inhibition of Vibrio cholerae glycoside hydrolase NagZ.

For assay [17], the system named is Rattus norvegicus. As to the kind of experiment: Induction of O-GlcNAc level in rat at 50 mg/kg, iv by Western blot analysis. To be noted: TDE = time-dependent effect. The arrangement: dose 50 mg/kg. The assay is classed as functional, organism-based.
Assay [18] relates to Rattus norvegicus. The assay can be described thus: Increase in O-GlcNAc immunoreactivity in Sprague-Dawley rat brain CA1 region at 200 mg/kg, po by […]. The format is functional, organism-based. The arrangement: dose 200 mg/kg.
The subject of another assay is Canavalia ensiformis. As to the kind of experiment: Inhibition of Canavalia ensiformis alpha-mannosidase.
For assay [19], the system named is PC-12. The assay can be described thus: Induction of O-GlcNAc level in NGF-differentiated rat PC12 cells after 24 hrs by densitometric analysis. The assay is classed as functional, cell-based. To be noted: PC-12, 24 h.
The subject of assay [20] is Rattus norvegicus. As to the kind of experiment: Decrease in pSer396 immunoreactivity in Sprague-Dawley rat brain pyramidal cell layer of CA1 region at 200 mg/kg, po by […]. The assay is classed as functional, organism-based. The arrangement: dose 200 mg/kg.
Assay [21] relates to Rattus norvegicus. As to the kind of experiment: Decrease in pThr231 immunoreactivity in Sprague-Dawley rat brain epitops of CA1 region at 200 mg/kg, po by […]. The assay is classed as functional, organism-based. The arrangement: dose 200 mg/kg.

Active and inactive are the calls of the source. The calls are words filed in the database; no cut-off is given here.

Take `CCCC1=N[C@@H]2[C@@H](O)[C@H](O)[C@@H](CO)O[C@@H]2S1`: in the assay filed under Homo sapiens, the fold change (FC) was 800. The compound also gave an inhibitory constant (Ki) at Protein O-GlcNAcase of 600 nM.
As for `CCNC1=N[C@@H]2[C@@H](O)[C@H](O)[C@@H](CO)O[C@@H]2S1`, the result with Rattus norvegicus [1], with Rattus norvegicus [2], with Rattus norvegicus [3], in the assay on Rattus norvegicus [5], in the assay with Rattus norvegicus [6] and with Rattus norvegicus [9] was Active. Moreover, the outcome with Rattus norvegicus [14], with Rattus norvegicus [18], in the assay with Rattus norvegicus [20] and with Rattus norvegicus [21] was Active. Also, the Activity result was “Dose-dependent effect” in the assay on PC-12 [4]; “Dose-dependent effect” in the assay on PC-12 [8]; “tde” with PC-12 [10]; “tde” in the assay on PC-12 [11]; “tde” with Rattus norvegicus [17]. Also, the inhibition result (in assay [7]; in [12]; with Saccharomyces cerevisiae; in assay [13]; in assay [16]; in the assay on Canavalia ensiformis) was “inactive” in each case. Besides, the affinity in [15], expressed as Ki, was 750000 nM. For the same compound, the EC50 in the assay on PC-12 [19] was found to be 30 nM.
The compound `CC(=O)N[C@H]1c2nc(CC(=O)O)cn2[C@H](CO)[C@@H](O)[C@@H]1O` displayed an inhibition constant Ki on Protein O-GlcNAcase of 420 nM.

The term Ki denotes a measure of affinity in units of concentration, obtained from inhibition or displacement. Low readings indicate higher affinity, high ones lower affinity. The term EC50 denotes the concentration giving half of the maximal effect.
